EP2628482A1, “Rho kinase inhiitors for use in the treatment of neuroblastoma” (Academisch Medisch Centrum, priority 2012, dated 2013)
Counter-ions that a name gives are not always drawn.

How the values were obtained:
[1] = tested on: neuroblastoma cell lines (IMR32, SJNB8, SKNBE, SY5Y, SHEP2, SKNAS); assay: Light microscopy of phenotypical changes after ROCK inhibitor treatment; assay type: cell-based; conditions: 25µM, 65 hours; cell bodies smaller, more elongated, neurite outgrowths appear
[2] = tested on: neuroblastoma cell lines (SKNBE, IMR, SJNB8, SHEP2, SKNAS, SY5Y); assay: MTT assay (cell viability); assay type: cell-based; conditions: for cell viability: all 6 neuroblastoma cell lines, 72 hours, 3 to 200 µM; for IC50: range over 6 neuroblastoma cell lines, 72 hours treatment, dose efficacy curves, read-out: IC50 (concentration drug needed for 50% cell viability reduction)
Protocol: To determine the sensitivity of the cell lines for the ROCK-inhibitors Y27632 and HA 1077 MTT assays were done. […] The IC50 (concentration drug needed for 50% cell viability reduction) of Y27632 determined by dose efficacy curves varied from 18 to 90 µM.
Cells were plated in a 10-30% confluence in a 96-well plate and treated after 24 hours with Y27632 (=Y27632 dihydrochloride; Tocris; Cat.nr. 1254) and HA1077 (=Fasudil hydrochloride; Tocris; Cat.nr. 0541) in a concentration ranging from 3 to 200 µM. 72 hours after treatment, 10 µl of Thyazolyl blue tetrazolium bromide (MTT, Sigma M2128) was added. After 4 hours of incubation 100 µl of 10% SDS, 0.01 M HCI was added to stop the reaction. The absorbance was measured at 570 nm and 720 nm using a platereader (biotech). The IC50 (concentration drug needed for 50% cell viability reduction) was calculated using concentration vector curves.

[3] = tested on: off-target kinases; conditions: reported by Aerie Pharmaceuticals; cited from earlier work
[4] = tested on: SHEP2 cells; assay: Immunofluorescence (actin / tubulin staining); assay type: cell-based; conditions: 50 micromolar, 24 hours of treatment
[5] = tested on: ROCK; conditions: cited from earlier work

Row | SMILES | phenotype of the cells (light microscope) [1] | cell viability [2] | IC50 [2] [µM] | number of off-target kinases tested at which activity was seen [3] | actin organization (phalloidin staining) [4] | tubulin localization [4] | potency against ROCK [5]
1 | C[C@@H](N)[C@H]1CC[C@H](C(=O)Nc2ccncc2)CC1 [Y27632, Y27632 dihydrochloride] | more neuronal-like (differentiated) phenotype | decrease in viability | 18 to 90 |  |  |  | 
2 | C[C@@H](N)c1ccc(C(=O)Nc2ccnc3[nH]ccc23)cc1 [Y-39983/SNJ-1656/RKI-983] |  |  |  | 25 |  |  | 
3 | O=S(=O)(c1cccc2cnccc12)N1CCCNCC1 [HA 1077, Fasudil hydrochloride] | more neuronal-like (differentiated) phenotype | decrease in viability | 15 to 45 |  | structured actin fibres (green) disappear | moves from a nuclear localization towards the cytoplasm | 
4 | CN(C)C(C(=O)Nc1ccc2c(=O)[nH]ccc2c1)c1ccsc1 (centres unmarked) [AR-12286] |  |  |  | 5 |  |  | nanomolar potency
